Laboratory results taken from paper PMC11082216, “A genetically encoded biosensor to monitor dynamic changes of c-di-GMP with high temporal resolution” (Nature Communications, 2024).
pKd: −log10 of the molar value.

What was measured:
PdeA [1] = target: T1, PdeA (Caulobacter vibrioides, UniProt A0A0H3CDG5); experiment: activation of purified PdeA phosphodiesterase, c-di-GMP turnover read with cdGreen2, GTP dose-response; format: biochemical
T1 sequence (A0A0H3CDG5 1-555): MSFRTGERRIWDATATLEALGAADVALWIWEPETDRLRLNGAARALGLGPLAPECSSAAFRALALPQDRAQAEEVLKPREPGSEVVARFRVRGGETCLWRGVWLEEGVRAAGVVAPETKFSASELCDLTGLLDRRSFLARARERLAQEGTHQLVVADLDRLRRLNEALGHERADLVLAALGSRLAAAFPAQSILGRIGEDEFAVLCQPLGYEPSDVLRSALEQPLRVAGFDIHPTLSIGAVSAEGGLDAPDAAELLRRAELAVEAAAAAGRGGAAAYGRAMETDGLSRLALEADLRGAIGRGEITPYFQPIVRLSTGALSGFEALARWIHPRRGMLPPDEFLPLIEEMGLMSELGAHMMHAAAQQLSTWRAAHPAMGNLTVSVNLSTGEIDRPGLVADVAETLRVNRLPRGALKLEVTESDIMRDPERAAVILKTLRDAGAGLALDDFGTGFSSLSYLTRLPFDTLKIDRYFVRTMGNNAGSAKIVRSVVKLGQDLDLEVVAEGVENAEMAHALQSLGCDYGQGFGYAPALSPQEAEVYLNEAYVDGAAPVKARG

PdeA [2] = target: T1, PdeA; experiment: purified phosphodiesterase turnover of c-di-GMP read with cdGreen2; format: biochemical

pKd (PdeA [1]) | Structure (SMILES) | purified phosphodiesterase turnover of c-di-GMP read with cdGreen2 (PdeA [2])
~5.47 | Nc1nc2c(ncn2[C@@H]2O[C@H](COP(=O)(O)OP(=O)(O)OP(=O)(O)O)[C@@H](O)[C@H]2O)c(=O)[nH]1 [GTP] | 
 | Nc1nc2c(ncn2[C@@H]2O[C@@H]3COP(=O)(O)O[C@H]4[C@@H](O)[C@H](n5cnc6c(=O)[nH]c(N)nc65)O[C@@H]4COP(=O)(O)O[C@H]3[C@H]2O)c(=O)[nH]1 [c-di-GMP] | purified cdGreen2 also accurately monitored the breakdown of c-di-GMP by all PDEs tested
